Source: the supplement of paper PMC11061612

What was measured:
Venetoclax = compound: CC1(C)CCC(CN2CCN(c3ccc(C(=O)NS(=O)(=O)c4ccc(NCC5CCOCC5)c([N+](=O)[O-])c4)c(Oc4cnc5[nH]ccc5c4)c3)CC2)=C(c2ccc(Cl)cc2)C1 [Venetoclax]; settings: max 1 µM
Outline: (§1)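 Cancer cell lines were seeded in 1536-well plates in 7.5 μl DMEM/F12 or RPMI with 10% FBS, held 24 hours at 37°C and 5% CO2, then dosed for 72 hours (final DMSO typically 0.2%). Viability was read by CellTiter-Glo 2.0 luminescence and scaled between blank-well and DMSO-well means. The single-agent IC50 comes from dose responses fitted to a two-parameter logistic curve with a non-linear mixed effects model.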

Olaparib = compound: O=C(c1cc(Cc2n[nH]c(=O)c3ccccc23)ccc1F)N1CCN(C(=O)C2CC2)CC1 [Olaparib]; settings: max 10 µM
Outline: as §1

AZD2811 = compound: CCN(CCO)CCCOc1ccc2c(Nc3cc(CC(=O)Nc4cccc(F)c4)[nH]n3)ncnc2c1 [AZD2811]; settings: max 1 µM
Outline: as §1

Prexasertib = compound: COc1cccc(OCCCN)c1-c1cc(Nc2cnc(C#N)cn2)n[nH]1 [Prexasertib]; settings: max 1 µM
Outline: as §1

Doxorubicin = compound: COc1cccc2c1C(=O)c1c(O)c3c(c(O)c1C2=O)C[C@@](O)(C(=O)CO)C[C@@H]3O[C@H]1C[C@H](N)[C@H](O)[C@H](C)O1 [Doxorubicin]; settings: max 1 µM
Outline: as §1

Selumetinib = compound: Cn1cnc2c(F)c(Nc3ccc(Br)cc3Cl)c(C(=O)NOCCO)cc21 [Selumetinib]; settings: max 10 µM
Outline: as §1

AZD5991 = compound: Cc1c2c(nn1C)CSCc1cc(n(C)n1)CSc1cc(c3ccccc3c1)OCCCc1c(C(=O)O)n(C)c3c-2c(Cl)ccc13 [AZD5991]; settings: max 1 µM
Outline: as §1

Crizotinib = compound: C[C@@H](Oc1cc(-c2cnn(C3CCNCC3)c2)cnc1N)c1c(Cl)ccc(F)c1Cl [Crizotinib]; settings: max 10 µM
Outline: as §1

AZD0156 = compound: CN(C)CCCOc1ccc(-c2ccc3ncc4c(c3c2)n(C2CCOCC2)c(=O)n4C)cn1 [AZD0156]; settings: max 3 µM
Outline: as §1

SN-38 = compound: CCc1c2c(nc3ccc(O)cc13)-c1cc3c(c(=O)n1C2)COC(=O)[C@]3(O)CC [SN-38]; settings: max 0.3 µM
Outline: as §1

AZD1775 = compound: C=CCn1c(=O)c2cnc(Nc3ccc(N4CCN(C)CC4)cc3)nc2n1-c1cccc(C(C)(C)O)n1 [AZD1775]; settings: max 3 µM
Outline: as §1

Gefitinib = compound: COc1cc2ncnc(Nc3ccc(F)c(Cl)c3)c2cc1OCCCN1CCOCC1 [Gefitinib]; settings: max 10 µM
Outline: as §1

Palbociclib = compound: CC(=O)c1c(C)c2cnc(Nc3ccc(N4CCNCC4)cn3)nc2n(C2CCCC2)c1=O [Palbociclib]; settings: max 10 µM
Outline: as §1

AZD7648 = compound: Cc1cc2ncnn2cc1Nc1ncc2c(n1)n(C1CCOCC1)c(=O)n2C [AZD7648]; settings: max 10 µM
Outline: as §1

Capivasertib = compound: C1CN(CCC1(C(=O)N[C@@H](CCO)C2=CC=C(C=C2)Cl)N)C3=NC=NC4=C3C=CN4 [Capivasertib]; settings: max 10 µM
Outline: as §1

Savolitinib = compound: C[C@@H](c1ccc2nccn2c1)n1nnc2ncc(-c3cnn(C)c3)nc21 [Savolitinib]; settings: max 1 µM
Outline: as §1

AZD4320 = compound: CN(CC[C@H](CSC1=CC=CC=C1)NC2=C(C=C(C=C2)S(=O)(=O)NC(=O)C3=CC=C(C=C3)N4CCC(CC4)[C@H](C5=CC=CC=C5C6=CC=C(C=C6)Cl)O)S(=O)(=O)C(F)(F)F)CCO [AZD4320]; settings: max 1 µM
Outline: as §1

Alisertib = compound: COc1cc(Nc2ncc3c(n2)-c2ccc(Cl)cc2C(c2c(F)cccc2OC)=NC3)ccc1C(=O)O [Alisertib]; settings: max 10 µM
Outline: as §1

MK-2206 = compound: NC1(c2ccc(-c3nc4ccn5c(=O)[nH]nc5c4cc3-c3ccccc3)cc2)CCC1 [MK-2206]; settings: max 10 µM
Outline: as §1

AZD8186 = compound: C[C@@H](Nc1cc(F)cc(F)c1)c1cc(C(=O)N(C)C)cc2c(=O)cc(N3CCOCC3)oc12 [AZD8186]; settings: max 3 µM
Outline: as §1

AZD6738 = compound: C[C@@H]1COCCN1C2=NC(=NC(=C2)C3(CC3)[S@](=N)(=O)C)C4=C5C=CNC5=NC=C4 [AZD6738]; settings: max 10 µM
Outline: as §1

SG3199 = compound: CC1=CN2[C@@H](C1)C=NC3=CC(=C(C=C3C2=O)OC)OCCCCCOC4=C(C=C5C(=C4)N=C[C@@H]6CC(=CN6C5=O)C)OC [SG3199]; settings: max 0.001 µM
Outline: as §1

Dasatinib = compound: CC1=C(C(=CC=C1)Cl)NC(=O)C2=CN=C(S2)NC3=CC(=NC(=N3)C)N4CCN(CC4)CCO [Dasatinib]; settings: max 2 µM
Outline: as §1

Lapatinib = compound: CS(=O)(=O)CCNCc1ccc(-c2ccc3ncnc(Nc4ccc(OCc5cccc(F)c5)c(Cl)c4)c3c2)o1 [Lapatinib]; settings: max 10 µM
Outline: as §1

Taselisib = compound: Cc1nc(-c2cn3c(n2)-c2ccc(-c4cnn(C(C)(C)C(N)=O)c4)cc2OCC3)n(C(C)C)n1 [Taselisib]; settings: max 10 µM
Outline: as §1

AZD1390 = compound: CC(C)n1c(=O)n(C)c2cnc3cc(F)c(-c4ccc(OCCCN5CCCCC5)nc4)cc3c21 [AZD1390]; settings: max 0.3 µM
Outline: as §1

AZD5153 = compound: COc1nnc2ccc(N3CCC(c4ccc(OCCN5CCN(C)C(=O)[C@H]5C)cc4)CC3)nn12 [AZD5153]; settings: max 1 µM
Outline: as §1

Trametinib = compound: CC(=O)Nc1cccc(-n2c(=O)n(C3CC3)c(=O)c3c(Nc4ccc(I)cc4F)n(C)c(=O)c(C)c32)c1 [Trametinib]; settings: max 1 µM
Outline: as §1

Cell Line | IC50, cell viability 72 h (Venetoclax) [µM] | IC50, cell viability 72 h (Olaparib) [µM] | IC50, cell viability 72 h (AZD2811) [µM] | IC50, cell viability 72 h (Prexasertib) [µM] | IC50, cell viability 72 h (Doxorubicin) [µM] | IC50, cell viability 72 h (Selumetinib) [µM] | IC50, cell viability 72 h (AZD5991) [µM] | IC50, cell viability 72 h (Crizotinib) [µM] | IC50, cell viability 72 h (AZD0156) [µM] | IC50, cell viability 72 h (SN-38) [µM] | IC50, cell viability 72 h (AZD1775) [µM] | IC50, cell viability 72 h (Gefitinib) [µM] | IC50, cell viability 72 h (Palbociclib) [µM] | IC50, cell viability 72 h (AZD7648) [µM] | IC50, cell viability 72 h (Capivasertib) [µM] | IC50, cell viability 72 h (Savolitinib) [µM] | IC50, cell viability 72 h (AZD4320) [µM] | IC50, cell viability 72 h (Alisertib) [µM] | IC50, cell viability 72 h (MK-2206) [µM] | IC50, cell viability 72 h (AZD8186) [µM] | IC50, cell viability 72 h (AZD6738) [µM] | IC50, cell viability 72 h (SG3199) [µM] | IC50, cell viability 72 h (Dasatinib) [µM] | IC50, cell viability 72 h (Lapatinib) [µM] | IC50, cell viability 72 h (Taselisib) [µM] | IC50, cell viability 72 h (AZD1390) [µM] | IC50, cell viability 72 h (AZD5153) [µM] | IC50, cell viability 72 h (Trametinib) [µM]
ETK-1 (Biliary Tract Carcinoma) | > 1 | > 10 | > 1 | 0.563 | > 1 | > 10 | > 1 | > 10 | > 3 | 0.227 | 1.02 | > 10 | > 10 | > 10 | > 10 | > 1 | > 1 | 6.57 | > 10 | > 3 | 6.85 | > 0.001 | 0.58 | 6.78 | 3.33 | > 0.3 | > 1 | > 1
HCC1143 (Breast Carcinoma) | > 1 | > 10 | > 1 | 0.019 | > 1 | > 10 | > 1 | > 10 | > 3 | 0.237 | 1.05 | > 10 | > 10 | > 10 | > 10 | > 1 | > 1 | > 10 | > 10 | > 3 | 2.87 | > 0.001 | > 2 | > 10 | 5.95 | > 0.3 | > 1 | > 1
HOP-92 (Non-Small Cell Lung Carcinoma) | > 1 | > 10 | > 1 | 0.134 | > 1 | > 10 | > 1 | > 10 | > 3 | 0.109 | > 3 | > 10 | > 10 | > 10 | > 10 | > 1 | 0.14 | > 10 | > 10 | > 3 | > 10 | > 0.001 | > 2 | > 10 | 6.71 | > 0.3 | > 1 | 0.139
HuO9 (Osteosarcoma) | > 1 | > 10 | > 1 | 0.0463 | 0.322 | > 10 | 0.0642 | 7.07 | > 3 | 0.00315 | 0.307 | > 10 | > 10 | > 10 | > 10 | > 1 | 0.171 | 5.74 | 8.02 | > 3 | 1.16 | > 0.001 | > 2 | > 10 | 0.511 | > 0.3 | 0.275 | > 1
JHH-6 (Hepatocellular Carcinoma) | > 1 | > 10 | > 1 | > 1 | > 1 | > 10 | > 1 | > 10 | > 3 | > 0.3 | > 3 | > 10 | > 10 | > 10 | > 10 | > 1 | > 1 | > 10 | – | > 3 | > 10 | > 0.001 | > 2 | > 10 | > 10 | > 0.3 | 0.922 | > 1
KG-1 (Acute Myeloid Leukemia) | 0.55 | > 10 | > 1 | 0.0458 | > 1 | > 10 | 0.0837 | > 10 | > 3 | 0.0132 | 0.662 | > 10 | > 10 | > 10 | > 10 | > 1 | 0.0969 | 0.774 | – | > 3 | 5.63 | > 0.001 | > 2 | > 10 | > 10 | > 0.3 | 0.216 | > 1
MCF7 (Breast Carcinoma) | > 1 | > 10 | > 1 | > 1 | > 1 | > 10 | 0.838 | > 10 | > 3 | 0.0532 | > 3 | > 10 | > 10 | > 10 | 8.44 | > 1 | > 1 | > 10 | 8.68 | > 3 | 6.71 | > 0.001 | > 2 | > 10 | 1.39 | > 0.3 | 0.343 | > 1
